According to US8343549B2, “Therapeutic uses of Dunaliella powder” (Nikken Sohonsha Corporation, priority 2003, dated 2013):

What was measured:
[1] = system: male LDL R-\-mice; assay: Western diet-induced diabetes in LDL R-/- mice; type: in vivo; details: LDL R-/- mice on Western diet, 4 weeks treatment
Source text: To test the effect of Dunaliella on Diabetes, male LDL R-\-mice (n=30) were fed a Western diet (42% calories from fat) in order to induce Diabetes. After 4 weeks of Western diet feeding, the mice were divided into 6 groups (n=5 in each group) and were fed Western diet fortified by rosiglitazone (0.02% of the diet, weight/weight), crude Dunaliella powder (8% of the diet, weight/weight) or 9-cis retinoic acid (24 nmol/mouse×day). The treatments lasted 4 weeks.
The 8% Dunaliella powder provided ˜1.5 nmol 9-cis retinoic acid/mouse×day. This calculated amount is based on conversion of β-carotene to vitamin A (27 molecules provide 1 molecule of vitamin A and on the ratio of retinoic acid to vitamin A which is about 1 molecule of retinoic acid to 300 molecules of retinol, retinal and retinoic acid).
The following groups were included:
1. Control, Western diet alone. (Control)
2. 9-cis retinoic acid (RA)
4. Dunaliella powder 8% (Dun)

[2] = system: patients; details: patients treated with gemfibrozil; cited from earlier work

SMILES | plasma glucose levels [1] | plasma insulin levels [1] | reduction of the rate of coronary events [2] [%]
CC1=C(/C=C/C(C)=C\C=C\C(C)=C\C(=O)O)C(C)(C)CCC1 [9-cis retinoic acid] | did not affect | did not affect | –
Cc1ccc(C)c(OCCCC(C)(C)C(=O)O)c1 [gemfibrozil] | – | – | 22
